Values quoted from earlier work in patent US20150133409A1, “TOPICAL OPHTHALMIC, OTIC, AND NASAL COMPOSITIONS OF CIPROFLOXACIN” (priority 2013, published 2015).
Like-named read-outs stand apart in the source and are kept apart here.

Details: aqueous 0.2 to 1 weight percent ciprofloxacin

pH at which crystalline precipitation of ciprofloxacin occurs (5° C.): above 5
pH at which crystalline precipitation of ciprofloxacin occurs (room temperature): above 5.5
SMILES: O=C(O)c1cn(C2CC2)c2cc(N3CCNCC3)c(F)cc2c1=O [ciprofloxacin]
